Measurements as given in PMC7044277 (Nature Communications, 2020).
Where “and” joins values, the source holds several entries; their conditions need not be identical. Equal values may be shown once.

Assays:
Type in all cases: cell-based
[1] = target: 320 non-olfactory GPCRs (Homo sapiens, UniProt P25090)
[2] = target: T1, 320 non-olfactory GPCRs (Homo sapiens, UniProt P32245); settings: receptor MC4R; replicate values, Fig_4g
T1 construct: expressed in transfected cells; host or cells: HTLA cells
T1 sequence (P32245 whole entry): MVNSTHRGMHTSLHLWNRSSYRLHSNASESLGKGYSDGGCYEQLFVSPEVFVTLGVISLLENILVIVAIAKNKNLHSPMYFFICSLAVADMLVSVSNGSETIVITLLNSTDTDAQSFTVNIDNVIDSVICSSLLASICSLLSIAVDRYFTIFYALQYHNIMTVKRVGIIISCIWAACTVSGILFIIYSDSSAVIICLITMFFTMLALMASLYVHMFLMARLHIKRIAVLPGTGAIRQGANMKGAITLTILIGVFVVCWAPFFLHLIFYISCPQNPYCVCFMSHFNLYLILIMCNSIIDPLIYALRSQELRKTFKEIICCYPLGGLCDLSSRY

[3] = target: T2, 320 non-olfactory GPCRs (Homo sapiens, UniProt Q15391); settings: receptor P2RY14; replicate values, Fig_4g
T2 construct: expressed in transfected cells; host or cells: HTLA cells
T2 sequence (Q15391 whole entry): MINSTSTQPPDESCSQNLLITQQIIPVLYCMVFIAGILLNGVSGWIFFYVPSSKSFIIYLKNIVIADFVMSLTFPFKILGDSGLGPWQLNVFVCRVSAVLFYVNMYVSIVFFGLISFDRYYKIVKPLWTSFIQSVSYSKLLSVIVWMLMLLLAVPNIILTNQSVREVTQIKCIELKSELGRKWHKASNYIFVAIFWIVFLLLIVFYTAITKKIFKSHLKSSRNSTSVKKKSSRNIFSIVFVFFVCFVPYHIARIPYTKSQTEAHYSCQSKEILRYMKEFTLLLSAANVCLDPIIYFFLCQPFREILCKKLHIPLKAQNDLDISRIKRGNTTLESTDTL

[4] = target: T3, 320 non-olfactory GPCRs (Homo sapiens, UniProt Q8IZF3)
T3 construct: expressed in transfected cells; host or cells: HTLA cells
T3 sequence (Q8IZF3 22-695): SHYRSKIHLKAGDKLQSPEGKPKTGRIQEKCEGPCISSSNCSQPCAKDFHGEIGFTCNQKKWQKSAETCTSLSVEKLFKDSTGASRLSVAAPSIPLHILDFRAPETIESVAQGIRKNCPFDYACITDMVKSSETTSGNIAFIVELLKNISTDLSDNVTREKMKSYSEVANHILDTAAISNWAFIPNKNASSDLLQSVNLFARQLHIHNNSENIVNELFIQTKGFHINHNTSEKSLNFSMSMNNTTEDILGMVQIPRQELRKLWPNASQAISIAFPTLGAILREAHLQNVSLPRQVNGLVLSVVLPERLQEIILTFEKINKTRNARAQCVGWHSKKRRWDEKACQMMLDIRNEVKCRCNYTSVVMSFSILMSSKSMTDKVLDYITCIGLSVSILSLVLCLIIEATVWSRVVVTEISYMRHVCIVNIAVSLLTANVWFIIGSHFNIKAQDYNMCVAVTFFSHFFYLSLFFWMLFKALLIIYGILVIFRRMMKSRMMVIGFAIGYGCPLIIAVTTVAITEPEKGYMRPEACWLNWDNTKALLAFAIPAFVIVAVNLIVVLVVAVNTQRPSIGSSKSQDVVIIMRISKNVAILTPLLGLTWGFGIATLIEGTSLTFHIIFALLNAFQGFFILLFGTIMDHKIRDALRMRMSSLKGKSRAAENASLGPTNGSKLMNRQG
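For Fold of Basal in this document: compound tested at 1 µM final concentration.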
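For GPCRome agonism screen response in this document: fold over basal response of each receptor without drug.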

Chain of 320 non-olfactory GPCRs (Homo sapiens, UniProt P25090) (P25090 whole entry): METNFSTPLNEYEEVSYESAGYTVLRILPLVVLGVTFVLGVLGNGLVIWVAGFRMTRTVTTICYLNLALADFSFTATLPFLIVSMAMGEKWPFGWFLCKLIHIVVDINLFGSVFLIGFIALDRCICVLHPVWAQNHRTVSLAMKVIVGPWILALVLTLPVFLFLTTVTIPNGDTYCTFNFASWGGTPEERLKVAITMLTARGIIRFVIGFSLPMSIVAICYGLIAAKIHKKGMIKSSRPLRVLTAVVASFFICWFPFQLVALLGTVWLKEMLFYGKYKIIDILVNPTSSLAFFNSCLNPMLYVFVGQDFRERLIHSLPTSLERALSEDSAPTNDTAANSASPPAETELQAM

CCOc1cccc2cc(C(C)NCC3(O)CCCCC3)oc12 (stereo not shown) [O4LE6]
Fold of Basal [1]: 1.561 and 1.917 and 2.561 and 1.97 | GPCRome agonism screen response [2]: 0.7124 and 0.7559 and 1.4135 and 1.293 | GPCRome agonism screen response [3]: 0.8976 and 0.7161 and 0.7434 and 0.9997 | Fold of Basal [4]: 1.314 and 0.8065 and 0.6945
